Experimental data from patent US20250281462A1, “THERAPEUTICALLY EFFECTIVE ORAL ADMINISTRATION OF A 2 ARYLBENZIMIDAZOLE” (Tranquis Therapeutics, Inc., priority 2021, published 2025).
“Also recorded” adds a separate entry of the source. Like-named read-outs stand apart in the source and are kept apart here.

Experiments:
IL-6 = test: LPS-stimulated IL-6 secretion from human PBMCs (ELISA); type: cell-based; conditions: LPS 1 ng/mL, 24 h
Method: The principal metabolites from liver metabolism of TQS-168 following oral administration have been described. See Sun et al., Rapid Commun. Mass Spectrom. 32:480-488 (2018), incorporated herein by reference. We synthesized the phase 1 metabolites from liver metabolism of TQS-168 illustrated in FIG. 20 and tested them for the ability to inhibit LPS-stimulated secretion of pro-inflammatory cytokines in vitro.
Briefly, 20,000 human PBMC were aliquoted into each well. LPS was added at 1 ng/mL and the cells incubated for 24 h in the presence of LPS and TQS-168 or one of its metabolites. Readouts were human IL-6 ELISA and human TNFα ELISA. For assay, supernatants were diluted in culture medium. The supernatant dilution for the IL-6 ELISA was 1:8, and the 1:2 for the human TNFα ELISA.

[1] = human, in vivo

## CC(C)(C)c1ccc(-c2nc3cc(O)ccc3[nH]2)cc1 [TQS-621]
IL-6
  inhibition of LPS-stimulated IL-6 secretion: potently inhibits; also recorded: potent inhibitor
[1]; po, 60 mg
  MPR AUC(0-inf): 5.63
  MPR Cmax: 2.44
[1]; po, 90 mg
  MPR AUC(0-inf): 6.16
  MPR Cmax: 1.93
[1]; po, 270 mg
  MPR AUC(0-inf): 5.92
  MPR Cmax: 2.62
[1]; po, 540 mg
  MPR AUC(0-inf): 7.91
  MPR Cmax: 3.43
[1]; male, 180 mg
  Frel AUC(0-inf): 63.6%
  Frel AUC(0-last): 63.5%
  Frel Cmax: 64.9%
[1]; male, po, 60 mg
  AUC(0-24): 383 ng·h/mL
  AUC(0-inf): 410 ng·h/mL
  Cmax: 65.3 ng/mL
  T1/2: 4.89 h
  Tmax: 2.50 h
[1]; male, po, 90 mg
  AUC(0-24): 1170 ng·h/mL
  AUC(0-inf): 1200 ng·h/mL
  AUC(0-last): 1190 ng·h/mL
  Cmax: 214 ng/mL
  T1/2: 4.79 h
  Tmax: 1.25 h
[1]; male, po, 270 mg
  AUC(0-24): 4250 ng·h/mL
  AUC(0-inf): 4950 ng·h/mL
  Cmax: 621 ng/mL
  T1/2: 10.4 h
  Tmax: 2.00 h
[1]; male, po, 540 mg
  AUC(0-24): 10800 ng·h/mL
  AUC(0-inf): 12700 ng·h/mL
  Cmax: 1110 ng/mL
  T1/2: 11.3 h
  Tmax: 4.00 h
